{"source": "patent US10888569B1", "about": "“Methods and compositions for treating cancer” (THE UNIVERSITY OF CHICAGO, priority 2017, dated 2021)", "key": {"[1]": {"test_system": "TNBC cells (BM1, MB436, MB468, BT549)", "format": "cell-based, human", "procedure": "TNBC cell lines stably knocked down with lenti-viral shRNA for BACH1 were constructed and maintained as described previously. Gene expression analysis of cultured cells and isolated tumor tissues used a Reverse transcriptase kit followed by Roche96 cycler for real time mRNA quantification and Lycor imaging for immunoblotting. For in vitro cell viability assay with mitochondrial inhibitors, TNBC cells (2×10^3-5×10^3/well) seeded on 96 well plates overnight with culture media (DMEM with 25 mM Glucose) were treated with inhibitors in fresh culture media (DMEM with 1.25 mM Glucose) for 48 and 72 hours and stained with calcein AM and/or monitored for cellular confluency using an IncuCyte Zoom Live Cell Analysis system. Extracellular flux analyzer was used to assay metabolic phenotypes of BACH1-depleted TNBC cells and TNBC cells that are treated with hemin overnight before assays. For bioinformatics analysis using primary patient data cohort (TCGA), cBioportal and R were used.\nBreast cancer cells (5,000 cells/well) and non-malignant mammary epithelial cells (8,000 cells/well) were plated on 96-well plates to observe growth of cells every 4 hours by phase contrast imaging using an IncuCyte Zoom Live Cell Analysis system (Essen Bioscience). After 24 hours of plating, inhibitors were added and monitored until control cells reached 100% confluent. To determine cell viability, cells were seeded in black walled 96-well plates overnight and treated with inhibitors for 48 hours. Calcein AM (R&D system) in PBS was then added and incubated for 1 hour at 37° C. Fluorescence was determined using a Victor3 plate reader (PerkinElmer) with excitation at 420 nm and emission at 520 nm. The absorbance was used to reflect live cell numbers and was normalized to those in control with vehicles and shown as relative viability (%)."}, "[2]": {"test_system": "mitochondrial inner membrane genes", "test": "Real-time quantitative PCR of mitochondrial inner membrane (ETC) genes", "format": "cell-based, human", "settings": "hemin 20 μM, 48 hours; BM1 and MB436 cells", "procedure": "(§1) Total RNA from cells and tumor samples was isolated using Trizol (Invitrogen) according to the manufacturer's instructions. Two μg of RNA was adapted for reverse transcriptase PCR (Applied Biosystem) to generate cDNA. Real-time PCR was carried out using LightCycler 96 (Roche) and a Fast Start Essential DNA master mix (2×) reagent. Cq values normalized relative to the expression of endogenous control genes using 2^(−ΔΔCq) were plotted."}, "[3]": {"test_system": "BACH1-enriched TNBC PDX tumor", "test": "Patient-derived xenograft (PDX) model treated with hemin and metformin", "format": "in vivo, mouse", "settings": "hemin 50 mg/kg/day i.p. and/or metformin 300 mg/kg/day; SCID-BEIGE mice", "procedure": "For a patient-derived xenografts (PDX) model, frozen PDX tumors in 0.5 ml of sterile HBSS were prepared in a volume of 10-20 mm^3. In brief, tumor fragments were implanted into the mammary fat pads of 5 weeks old SCID-Beige mice following standard procedures. […] Tumor volume was measured by caliper weekly. Tumor weight was measured at the end of drug treatment. Tumor size was shown as mean+/_s.e.m. with significance (p-value) by paired Student's t-test. All the animals were also monitored regularly for body weights."}, "BACH1": {"target": "T1, BACH1 (Mus musculus, UniProt P97302, C438A/C464A/C495A/C649A)", "T1 construct": "Protein blots of BACH1 levels in BM1 and MB436 cells treated with Hemin for 4 or 24 hours; endogenous in cells; host or cells: BM1 (MDA-MB-231 derivative), MDA-MB-436, BT549", "T1 sequence (P97302 1-739 C438A/C464A/C495A/C649A)": "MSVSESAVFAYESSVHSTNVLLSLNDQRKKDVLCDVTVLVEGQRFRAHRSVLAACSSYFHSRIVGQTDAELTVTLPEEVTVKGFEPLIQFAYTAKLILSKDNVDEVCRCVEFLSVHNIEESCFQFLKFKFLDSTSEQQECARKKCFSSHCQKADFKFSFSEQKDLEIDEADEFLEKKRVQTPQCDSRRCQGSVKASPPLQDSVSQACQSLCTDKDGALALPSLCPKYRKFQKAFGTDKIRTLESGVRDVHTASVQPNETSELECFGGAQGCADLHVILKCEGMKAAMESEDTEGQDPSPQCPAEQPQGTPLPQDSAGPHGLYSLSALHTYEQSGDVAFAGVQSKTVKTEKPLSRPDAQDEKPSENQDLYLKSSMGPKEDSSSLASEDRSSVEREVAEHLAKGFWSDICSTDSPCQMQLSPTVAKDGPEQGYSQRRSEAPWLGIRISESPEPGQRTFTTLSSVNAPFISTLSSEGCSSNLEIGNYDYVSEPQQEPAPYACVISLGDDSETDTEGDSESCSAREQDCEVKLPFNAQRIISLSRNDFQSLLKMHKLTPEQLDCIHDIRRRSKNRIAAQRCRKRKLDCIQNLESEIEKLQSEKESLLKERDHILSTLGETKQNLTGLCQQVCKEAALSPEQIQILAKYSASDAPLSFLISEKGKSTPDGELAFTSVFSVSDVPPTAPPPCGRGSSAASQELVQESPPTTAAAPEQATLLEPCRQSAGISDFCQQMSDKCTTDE", "test": "Immunoblotting of BACH1 in cell lysates after hemin", "format": "cell-based, human", "settings": "hemin 20 μM", "procedure": "Whole cell lysates were prepared using RIPA buffer (Sigma) with protease inhibitor cocktails (1:100 ThermoFisher) and phosphatase inhibitors (SimpleStop1, Gold Biotechnology) at 4° C. and quantified using Bradford assays for western blotting using antibodies against BACH1 (sc-271211; Santa Cruz), and alpha-TUBULIN (sc-28199; Santa Cruz). Blots were imaged and processed using a Licor Odyssey Fc, dual-mode imaging system (Licor)."}, "HMOX1": {"test_system": "HMOX1", "test": "Real-time quantitative PCR of HMOX1", "format": "cell-based, human", "settings": "hemin 20 μM, 48 hours; BM1 and MB436 cells", "procedure": "as §1"}, "MB436 xenograft tumors": {"test_system": "MB436 xenograft tumors", "settings": "hemin 50 mg/kg/day i.p. 10 consecutive days prior to metformin 200 mg/kg", "experimental": "Two million human breast cancer cells (MDA-MB-436-shCont, MDA-MB-436-shBACH1, BM1-shBACH1, or BM1-shCont) in 100 μl PBS were injected into the mammary fat pads of 5 to 6 weeks old athymic nude female mice (Charles River Laboratories). When tumors were about 20-30 or 50 mm^3 in volume, hemin (50 mg/kg/day) or vehicle (20 mM NaOH in phosphate buffered saline) was injected intraperitoneally for 10 days prior to metformin treatment for 8 weeks. Metformin (200 mg/kg for MDA-MB-436 cells or 300 mg/kg for BM1-cells) was provided in drinking water ad libidum. Tumor growth was monitored weekly by caliper measurement in two dimensions to generate ellipsoid volumes using an equation of vol.=0.4×(L×W^2)."}}, "data": [{"smiles": "C=CC1=C(C)c2cc3[n-]c(cc4[n-]c(cc5nc(cc1n2)C(C)=C5C=C)c(C)c4CCC(=O)O)c(CCC(=O)O)c3C.[Cl-].[Fe+3]", "note": "[hemin, Chloro[3,7,12,17-tetramethyl-8,13-divinylporphyrin-2,18-dipropanoato(2-)]iron(III)]", "values": [{"measurement": "cytotoxicity / growth inhibition of cultured TNBC cells", "setting": "[1]; 20 μM hemin", "value": "neither cytotoxic nor growth inhibitory"}, {"measurement": "metformin sensitivity of MB468 cells expressing wild type BACH1 when treated with hemin", "setting": "[1]; MB468 transfected with pCDH-BACH1", "value": "metformin sensitivity was restored"}, {"measurement": "cytotoxicity / growth inhibition of TNBC cells", "setting": "[1]; hemin 10-80 μM up to 124 hours", "value": "neither cytotoxic nor growth inhibitory"}, {"measurement": "mitochondrial gene expression", "setting": "[2]", "value": "increased"}, {"measurement": "PDX tumor volume, weight, size compared to controls", "setting": "[3]", "value": "considerable reduction in tumor volumes"}, {"measurement": "degradation of heme-resistant BACH1 mutant (Mut-Bach1)", "setting": "BACH1", "value": "did not degrade Mut-Bach1"}, {"measurement": "HMOX1 expression", "setting": "HMOX1", "value": "increased"}, {"measurement": "breast tumor growth / volume", "setting": "MB436 xenograft tumors", "value": "neither hemin nor metformin alone significantly altered tumor growth"}]}]}
